Test results published in patent publication EP4120837B1, “INHIBITORS OF CYTOKININ OXIDASE DERIVED FROM 2-(3-PHENYLUREIDO)BENZAMIDE, USE THEREOF AND PREPARATIONS CONTAINING THESE DERIVATIVES” (Univerzita Palackého v Olomouci, priority 2020, dated 2021).
Several values for one entry are separate records, joined by “and”; a condition that tells them apart may be missing. Identical values can stand only once.

Tests used:
wheat = assay: Field trial, seed yield of wheat; format: in vivo; conditions: for Yield (%): control = 100 %
Method: Example 19. The application of compound 24 increases the seed yield of wheat in field conditions In 2017, the effect of the application of substance 24 on wheat yield in field conditions was investigated. The substance was again applied either to wheat seeds before sowing (= seed dressing with substance 24 at a concentration of 50 µM) or to leaves (= spraying with substance 24 at a concentration of 5 µM) in two different growth phases - BBCH 25 and BBCH 51. All field experiments were performed according to Good Agricultural Practice. […] Table 6. Application of compound 24 increases seed yield of wheat in field conditions

winter rapeseed = assay: Field trial, seed yield of winter rapeseed; format: in vivo; conditions: 1 µM foliar application; for Yield (%): 300 L per hectare, control = 100 %; for weight of one thousand seeds: control 5.38 g
Method: In 2018, the effect of foliar application of substance 24 (concentration 1 µM in a volume of 300 L per hectare) on the yield of winter rapeseed was investigated in field conditions. The field trials were again performed according to Good Agricultural Practice. Substance 24 was applied to plants in two different growth phases - BBCH 30 and BBCH 33-35. […] The weight of one thousand seeds in the treated plants was 5.6 g (BBCH 30) and 5.8 g (BBCH 33-35). This phenomenon also contributed to the increase in total seed yield. Table 5. Application of substance 24 increases the seed yield of winter rapeseed in field conditions

ZmCKX1 = target: T1, ZmCKX1 (Zea mays, UniProt Q9T0N8); assay: ZmCKX1 inhibition, PMS/MTT assay; format: biochemical, maize; conditions: 10 µM iP as substrate, pH 7.4, 30 min at 37 °C; average of at least two measurements; read-out: IC50 (µM) ZmCKX1
T1 construct: made in house; host or cells: Yarrowia lipolytica
Method: The IC50 (concentration of a substance that causes 50% inhibition of the enzyme activity) was measured by PMS/MTT assay [phenazine methosulphate/3-(4,5-dimethylthiazol-2-yl)-2,5-diphenyltetrazolium bromide]. The assay was performed in 96-well microtiter plates. Each well contained a reaction mixture with a final concentration of: 0.1 M KH2PO4, pH 7.4, 1 mM MTT, 0.2 mM PMS, tested substance in a concentration range of 0.1 nM - 1 µM and 10 µM N^6-isopentenyladenine (iP) as a substrate. To this reaction mixture 100 µL of medium containing the active enzyme ZmCKX1 was added. The enzyme was produced by the yeast Yarrowia lipolytica and isolated according to the protocol (Kopečný D. et al., 2005, […] 87:1011-1022). The plates were incubated for 30 min at 37 °C and the enzymatic reaction was stopped by the addition of 25 µL of 35% acetic acid. Then, the absorbance at 578 nm was measured on a spectrophotometer, and the absorbance of the sample without the substrate was substracted as a reference value. The IC50 value was determined from the concentration-dependent curves in GraphPad Prism software. The values shown in Table 1 are the average of at least two measurements each performed in three repetitions. […] The substance 3,5DCl-Ph-U is 1-(3,5-dichlorophenyl)-3-phenylurea, which we have been prepared to compare its inhibitory activity with the compounds presented in the present invention. Addition of the amide group to the unsubstituted phenyl ring of this substance gives the compound 2AD-3,5DC, which has 42-fold better inhibitory activity with the ZmCKX1 enzyme than 3,5DCl-Ph-U. F-INCYDE ((2-fluoro-9H-purin-6-yl)-(3-methoxyphenyl)amine), CPPU (1-(2-chloropyridin-4-yl)-3-phenylurea), and DCPPU (1-(2,6-dichloropyridin-4-yl)-3-phenylurea) are substances known in the prior art.

Arabidopsis thaliana [1] = assay: Foliar application, life span and seed yield of Arabidopsis under drought stress; format: in vivo; conditions: 0.01 µM foliar spray, reduced watering
Method: Young Arabidopsis thaliana plants grown in small pots in soil were sprayed with a 0.01 µM aqueous solution of substance 24 in phase of four true leaves (within 14-20 days after sowing). Control plants were sprayed with an aqueous solution of DMSO (c = 0.01% (v/v)) and silwet (c = 0.001% (v/v)). Control plants were further divided into watered plants and those with reduced watering (drought stressed). […] All plants were grown until the stage of their natural death. Control watered plants lived for an average of 85 days before dying spontaneously. Their seed yield in average was 141 (± 22) mg. Control plants with reduced watering lived only 61 days on average and the average yield was 95 (± 14) mg. Plants treated with substance 24 and with reduced watering lived for an average of 75 days and their average seed yield was 117 (± 16) mg. […] Table 3. Foliar application with compound 24 reduces Arabidopsis thaliana seed yield losses

Arabidopsis thaliana [2] = assay: Foliar application, seed yield of Arabidopsis under optimal conditions; format: in vivo
Method: In our experiment, young Arabidopsis thaliana plants were grown in small pots in soil and they were sprayed with a 0.01 µM compound 24 (aq solution) in phase of 4 true leaves (about 14-20 days after sowing). Control plants were sprayed with an aqueous solution of DMSO (c = 0.01% (v/v)) and silwet (c = 0.001% (v/v)). Both treated (n = 25) and control plants (n = 25) were further grown under optimal conditions until their natural death. Subsequently, seeds from all plants were harvested and the yield was evaluated (Table 2). […] This means an increase in total seed yield of 21 %.
This means an increase in total seed yield of 17 %. Table 2. Foliar application of 24 increases seed yield of Arabidopsis thaliana

barley = assay: Field trial, seed yield of barley; format: in vivo; conditions: for Yield (%): control = 100 %
Method: The effect of compound 24 on seed yield of barley and its phenotype was investigated in a field trials. All field experiments were performed according to Good agricultural practices, ie. six areas of 10 m^2 were used for one variant. Furthermore, the crop was not treated with any other growth regulator (substance 24 only) or fungicide. Compound 24 was applied to seeds at a concentration of 10 µM before sowing. In 2016 barley seeds treated by this way were grown in the field and the yield of these plants was compared with the untreated control (Table 4).
In 2017, compound 24 was applied to barley leaves at a concentration of 5 µM (in a volume of 200 L per hectare) in two different growth phases - BBCH 21-23 and BBCH 51. […] Table 4. Application of substance 24 increases the seed yield of barley in field conditions

[3] = 10 µM seed application before sowing, 2016

T1 sequence (Q9T0N8 19-534): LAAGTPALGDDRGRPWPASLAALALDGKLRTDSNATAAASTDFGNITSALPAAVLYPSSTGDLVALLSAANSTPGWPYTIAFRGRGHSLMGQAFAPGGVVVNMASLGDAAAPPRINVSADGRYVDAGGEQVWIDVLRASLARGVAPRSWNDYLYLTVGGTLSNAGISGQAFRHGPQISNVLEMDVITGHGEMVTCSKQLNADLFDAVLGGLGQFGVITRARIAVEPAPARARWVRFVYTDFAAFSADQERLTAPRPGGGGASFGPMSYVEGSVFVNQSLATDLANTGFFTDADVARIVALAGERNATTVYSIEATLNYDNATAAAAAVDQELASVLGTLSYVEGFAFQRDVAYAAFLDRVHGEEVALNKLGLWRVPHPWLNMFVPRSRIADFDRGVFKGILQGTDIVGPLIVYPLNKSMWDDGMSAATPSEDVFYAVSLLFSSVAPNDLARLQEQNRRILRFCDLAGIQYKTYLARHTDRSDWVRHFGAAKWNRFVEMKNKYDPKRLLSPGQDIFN

COc1ccc(C(N)=O)c(NC(=O)Nc2cc(Cl)cc(Cl)c2)c1 [compound 24, 2-[3-(3,5-Dichlorophenyl)ureido]-4-methoxybenzamide]
Yield (%) (wheat; 5 µM foliar application, BBCH 25, 2017): 105.9%
Yield (%) (wheat; 5 µM foliar application, BBCH 51, 2017): 105.0%
Yield (%) (wheat; 50 µM seed dressing before sowing, 2017): 104.0%
tillers, more than the control plants (wheat; treated plants, mode of application not specified, 2017): about 7%
Yield (%) (winter rapeseed; BBCH 30, 2018): 106.2%
Yield (%) (winter rapeseed; BBCH 33-35, 2018): 108.8%
weight of one thousand seeds (winter rapeseed; BBCH 30): 5.6 g
weight of one thousand seeds (winter rapeseed; BBCH 33-35): 5.8 g
IC50 (ZmCKX1): 0.001 µM
Yield (mg), average seed yield (Arabidopsis thaliana [1]): 117 ± 16 mg
life span (lived for an average of) (Arabidopsis thaliana [1]): 75 days
Yield (mg), average seed yield (Arabidopsis thaliana [1]; listed as substance 24): 117 (± 16) mg
Yield (%) (Arabidopsis thaliana [1]; watered control = 100 %): 83%
Yield (mg), total seed yield per plant (Arabidopsis thaliana [2]; 0.01 µM aq solution sprayed in phase of 4 true leaves, n = 25, experiment and its repeat): 148 (± 17) mg and 135 (± 13) mg and 148 ± 17 mg and 135 ± 13 mg
seeds per silique (Arabidopsis thaliana [2]; 0.01 µM foliar spray, average): 50 (± 5) and 52 (± 7)
Yield (%) (Arabidopsis thaliana [2]; 0.01 µM foliar spray, control = 100 %): 121% and 117%
Yield (%) (barley; 5 µM foliar application, 200 L per hectare, BBCH 21-23, 2017): 106.3%
Yield (%) (barley; 5 µM foliar application, 200 L per hectare, BBCH 51, 2017): 106.8%
number of tillers, more than the control plants (barley; [3]): 14%
Yield (%) (barley; [3]): 105.3%
